Measurements from ChEMBL document CHEMBL4261649, “Design and synthesis of boron containing monosaccharides by the hydroboration of d-glucal for use in boron neutron capture therapy (BNCT)” (Bioorg Med Chem, 2018).
Active and inactive are the calls of the source. No cut-off for these calls is given here.

Experiments:
A549 = assay: Cytotoxicity against human A549 cells assessed as reduction in cell viability up to 1600 uM after 16 hrs by MTT assay; assay type: functional, cell-based
[1] = Drug uptake in human HeLaS3 cells at 30 uM after 7 to 24 hrs under normoxic condition by ICP-MS analysis; assay type: ADME, cell-based; settings: hela s3, 30 µM
[2] = Drug uptake in human A549 cells at 30 uM after 7 to 24 hrs under normoxic condition by ICP-MS analysis; assay type: ADME, cell-based; settings: a549, 30 µM
HeLa S3 = assay: Cytotoxicity against human HeLaS3 cells assessed as reduction in cell viability up to 1600 uM after 16 hrs by MTT assay; assay type: functional, cell-based
[3] = Drug uptake in human A549 cells at 30 uM after 7 to 24 hrs under hypoxic condition by ICP-MS analysis; assay type: ADME, cell-based; settings: a549, 30 µM
[4] = (§1) Substrate activity at hexokinase (unknown origin) assessed as compound phosphorylation after 1 days in presence of ATP by 31-P NMR spectroscopic analysis; assay type: ADME; settings: human, 24 h
[5] = Drug uptake in human HeLaS3 cells at 30 uM after 7 to 24 hrs under hypoxic condition by ICP-MS analysis; assay type: ADME, cell-based; settings: hela s3, 30 µM
[6] = Drug uptake in human HeLaS3 cells assessed per cell at 30 uM after 7 hrs under hypoxic condition by ICP-MS analysis; assay type: ADME, cell-based; settings: hela s3, 7 h
[7] = Drug uptake in human HeLaS3 cells assessed per cell at 30 uM after 7 hrs under normoxic condition by ICP-MS analysis; assay type: ADME, cell-based; settings: hela s3, 7 h
hexokinase [8] = assay: as §1; assay type: ADME; settings: human, hexokinase (isolated enzyme); read-out: Activity
hexokinase [9] = assay: Substrate activity at hexokinase (unknown origin) assessed as compound phosphorylation after 5 days in presence of ATP by 31-P NMR spectroscopic analysis; assay type: ADME; settings: human, hexokinase (isolated enzyme); read-out: Activity

Compound	Drug uptake [1]	Drug uptake [2]	Drug uptake [3]	Activity [4]	Drug uptake [5]	Drug uptake [6] [fmol]	Drug uptake [7] [fmol]	metabolised at 24 h (hexokinase [8]) [%]	metabolised at 120 h (hexokinase [9]) [%]	Activity (A549)	Activity (HeLa S3)
OC[C@H]1OC[C@H](B(O)O)[C@@H](O)[C@@H]1O	Active	Active	Active	Active	Active	0.4	0.3	–	–	Active	Active
OC[C@H]1OC(O)[C@H](O)[C@@H](O)[C@@H]1O (stereo partly drawn) [DEXTROSE]	–	–	–	–	–	–	–	97	–	–	–
N[C@@H](Cc1ccc(B(O)O)cc1)C(=O)O	Active	Active	Active	–	Active	–	–	–	–	Active	Active
O=P(O)(O)OC[C@H]1OC(O)[C@H](O)[C@@H](O)[C@@H]1O (stereo partly drawn)	–	–	–	Active	–	–	–	–	19	–	–
c1ccc(B2OC3(CCCCC3)C3(CCCCC3)O2)c(CN2CCNCCNCCNCC2)c1	Active	Active	Active	–	Active	–	–	–	–	–	–
CC1CC(C)OB([C@H]2CO[C@H](CO)[C@@H](O)[C@@H]2O)O1 (stereo partly drawn)	Active	Active	–	–	–	–	–	–	–	Active	Active

Second part, led by results:

Drug uptake [1]	Drug uptake [2]	Drug uptake [3]	Activity [4]	Drug uptake [5]	Drug uptake [6] [fmol]	Drug uptake [7] [fmol]	metabolised at 24 h (hexokinase [8]) [%]	metabolised at 120 h (hexokinase [9]) [%]	Compound	Activity (A549)	Activity (HeLa S3)
Active	Active	–	–	–	–	–	–	–	OC[C@H]1OC[C@H](B2OCCCO2)[C@@H](O)[C@@H]1O	Active	Active
Active	Active	Active	Not Active	Active	–	–	–	–	CC1(C)OB([C@H]2CO[C@H](CO)[C@@H](O)[C@@H]2O)OC1(C)C	Active	Active
Active	Active	Active	–	Active	–	–	–	–	OC[C@H]1OC[C@H](B2OC3(CCCCC3)C3(CCCCC3)O2)[C@@H](O)[C@@H]1O	Active	Active
